Measurements as given in paper PMC10689823, “Discovery of a Drug-like, Natural Product-Inspired DCAF11 Ligand Chemotype” (Nature Communications, 2023).

Target: BRD4S-TagBFP reporter (Homo sapiens, UniProt O60885)
Experiment: FACS-based CRISPR/Cas9 BRD4 protein stability screen
Conditions: Mageck_Gene level
Procedure: The virus containing supernatant was cleared of cellular debris by filtration through a 0.45-µm PES filter and used to transduce KBM7 BRD4-BFP reporter cells harboring a doxycycline inducible Cas9 allele at a multiplicity of infection (MOI) of 0.05 and 1,000-fold library representation. Library-transduced cells were selected with G418 (1 mg ml^−1, Gibco) for 14 days, expanded and Cas9 expression was induced with DOX (0.4 µg ml^−1, PanReac AppliChem).
Cells were washed with and stored in FACS buffer (PBS containing 5% FBS and 1 mM EDTA) at 4 °C overnight. The next day, cells were strained trough a 35 µm nylon mesh and sorted on a BD FACSAria™ Fusion (BD Biosciences) using a 85 µm nozzle. Aggregates, dead (ZombieNIR positive), Cas9-negative (GFP) and sgRNA library-negative (Thy1.1-APC) cells were excluded, and the remaining cells were sorted based on their BRD4-BFP and mCherry levels into BRD4^HIGH (10% of cells), BRD4^MID (30%) and BRD4^LOW (10%) fractions. For each sample, cells corresponding to at least 2,000-fold library representation were sorted per replicate.
Next-generation sequencing (NGS) libraries of sorted cell fractions were prepared as previously described[25]. In brief, genomic DNA was isolated by cell lysis (10 mM Tris-HCl, 150 mM NaCl, 10 mM EDTA, 0.1% SDS), proteinase K treatment (New England Biolabs) and DNAse-free RNAse digest (Thermo Fisher Scientific), followed by two rounds of phenol extraction and 2-propanol precipitation. Isolated genomic DNA was subjected to several freeze–thaw cycles before nested polymerase chain reaction (PCR) amplification of the sgRNA cassette.
Barcoded NGS libraries for each sorted population were generated using a two-step PCR protocol using AmpliTaq Gold (Invitrogen). The resulting PCR products were purified using Mag-Bind® TotalPure NGS beads (Omega Bio-tek) and amplified in a second PCR introducing the standard Illumina adapters. The final Illumina libraries were bead-purified, pooled and sequenced on a HiSeq 3500 platform (Illumina).
Screen analysis was performed as previously described[25]. Briefly, sequencing reads were quantified using the crispr-process-nf Nextflow workflow, available at https://github.com/ZuberLab/crispr-process-nf/tree/566f6d46bbcc2a3f49f51bbc96b9820f408ec4a3. For statistical analysis, we used the crispr-mageck-nf Nextflow workflow, available at https://github.com/ZuberLab/crispr-mageck-nf/tree/c75a90f670698bfa78bfd8be786d6e5d6d4fc455. To calculate gene-level enrichment, the sorted populations (BRD4^HIGH or BRD4^LOW) were compared to the BRD4^MID populations in MAGeCK (0.5.9)[46], using median normalized read counts.

Cc1sc2c(c1C)C(c1ccc(Cl)cc1)=N[C@@H](CC(=O)NCCOCCOCCOCCOCCNC(=O)COc1c(Br)cc(/C=C3\C(=O)Nc4ccc(Br)cc43)cc1Br)c1nnc(C)n1-2 [Compound 9]
High_lfc (Gene DCAF1): -0.04
High_logP (Gene DCAF1): 0.22
Low_lfc (Gene DCAF1): 0.71
Low_logP (Gene DCAF1): 1.93
High_lfc (Gene DCAF4): -0.33
High_logP (Gene DCAF4): 0.01
Low_lfc (Gene DCAF4): -0.08
Low_logP (Gene DCAF4): 0.63
High_lfc (Gene DCAF5): -0.12
High_logP (Gene DCAF5): 0.13
Low_lfc (Gene DCAF5): 0.4
Low_logP (Gene DCAF5): 1.39
High_lfc (Gene DCAF6): 0.1
High_logP (Gene DCAF6): 0.11
Low_lfc (Gene DCAF6): 0.51
Low_logP (Gene DCAF6): 1.55
High_lfc (Gene DCAF7): -0.09
High_logP (Gene DCAF7): 0.04
Low_lfc (Gene DCAF7): 0.11
Low_logP (Gene DCAF7): 0.24
High_lfc (Gene DCAF8): -0.19
High_logP (Gene DCAF8): 0.14
Low_lfc (Gene DCAF8): 0.08
Low_logP (Gene DCAF8): 0.18
High_lfc (Gene DCAF12): 0.07
High_logP (Gene DCAF12): 0.29
Low_lfc (Gene DCAF12): -0.16
Low_logP (Gene DCAF12): 0.06
High_lfc (Gene DCAF13): -0.33
High_logP (Gene DCAF13): 0.07
Low_lfc (Gene DCAF13): -0.3
Low_logP (Gene DCAF13): 0.33
High_lfc (Gene DCAF15): -0.01
High_logP (Gene DCAF15): 0.12
Low_lfc (Gene DCAF15): 0.32
Low_logP (Gene DCAF15): 0.83
High_lfc (Gene DCAF16): 0.71
High_logP (Gene DCAF16): 2.61
Low_lfc (Gene DCAF16): -0.66
Low_logP (Gene DCAF16): 0.04
High_lfc (Gene DCAF17): 0.07
High_logP (Gene DCAF17): 0.17
Low_lfc (Gene DCAF17): -0.16
Low_logP (Gene DCAF17): 0.07
High_lfc (Gene DCUN1D1): 0.27
High_logP (Gene DCUN1D1): 1.62
Low_lfc (Gene DCUN1D1): -0.11
Low_logP (Gene DCUN1D1): 0.82
High_lfc (Gene DCUN1D2): -0.24
High_logP (Gene DCUN1D2): 0
Low_lfc (Gene DCUN1D2): 0.46
Low_logP (Gene DCUN1D2): 1.57
High_lfc (Gene DCUN1D3): 0.07
High_logP (Gene DCUN1D3): 0.22
Low_lfc (Gene DCUN1D3): 0.29
Low_logP (Gene DCUN1D3): 0.82
High_lfc (Gene DCUN1D4): -0.09
High_logP (Gene DCUN1D4): 0.04
Low_lfc (Gene DCUN1D4): -0.2
Low_logP (Gene DCUN1D4): 0.05
High_lfc (Gene DCUN1D5): 0.69
High_logP (Gene DCUN1D5): 2.79
Low_lfc (Gene DCUN1D5): -0.49
Low_logP (Gene DCUN1D5): 0
High_lfc (Gene DDA1): 0.43
High_logP (Gene DDA1): 1.02
Low_lfc (Gene DDA1): -0.23
Low_logP (Gene DDA1): 0.16
High_lfc (Gene DDB1): 2.03
Low_lfc (Gene DDB1): 0.4
Low_logP (Gene DDB1): 0.83
High_lfc (Gene DDB2): 0.02
High_logP (Gene DDB2): 0.06
Low_lfc (Gene DDB2): 0.07
Low_logP (Gene DDB2): 0.53
High_lfc (Gene DET1): -0.36
High_logP (Gene DET1): 0.06
Low_lfc (Gene DET1): -0.27
Low_logP (Gene DET1): 0.06
High_lfc (Gene DHX15): 0.66
Low_lfc (Gene DHX15): 0.13
Low_logP (Gene DHX15): 0.31
High_lfc (Gene DTL): -0.25
High_logP (Gene DTL): 0.1
Low_lfc (Gene DTL): 0.46
Low_logP (Gene DTL): 1.87
High_lfc (Gene ECT2L): -0.03
High_logP (Gene ECT2L): 0.31
Low_lfc (Gene ECT2L): -0.31
Low_logP (Gene ECT2L): 0.2
High_lfc (Gene EED): 0.01
High_logP (Gene EED): 0.06
Low_lfc (Gene EED): -0.55
Low_logP (Gene EED): 0.01
High_lfc (Gene EIF4A1): -0.26
High_logP (Gene EIF4A1): 0.15
Low_lfc (Gene EIF4A1): -0.34
Low_logP (Gene EIF4A1): 0.04
High_lfc (Gene EIF4A3): -0.3
High_logP (Gene EIF4A3): 0.1
Low_lfc (Gene EIF4A3): 0.62
Low_logP (Gene EIF4A3): 1.82
High_lfc (Gene ELOA2): 0.02
High_logP (Gene ELOA2): 0.19
Low_lfc (Gene ELOA2): -0.02
Low_logP (Gene ELOA2): 0.17
High_lfc (Gene ELOA3): -0.12
High_logP (Gene ELOA3): 0.33
Low_lfc (Gene ELOA3): -0.41
Low_logP (Gene ELOA3): 0.06
High_lfc (Gene ELOA3D): -0.34
High_logP (Gene ELOA3D): 0.11
Low_lfc (Gene ELOA3D): -0.14
Low_logP (Gene ELOA3D): 0.69
High_lfc (Gene ELOA): -0.54
High_logP (Gene ELOA): 0
Low_lfc (Gene ELOA): 0.05
Low_logP (Gene ELOA): 0.65
High_lfc (Gene ELOB): -0.05
High_logP (Gene ELOB): 0.33
Low_lfc (Gene ELOB): 0.22
Low_logP (Gene ELOB): 0.4
High_lfc (Gene ELOC): -0.21
High_logP (Gene ELOC): 0.17
Low_lfc (Gene ELOC): 0.63
Low_logP (Gene ELOC): 1.29
High_lfc (Gene ENC1): -0.27
High_logP (Gene ENC1): 0.19
Low_lfc (Gene ENC1): -0.31
Low_logP (Gene ENC1): 0.09
High_lfc (Gene EPHA4): 0.01
High_logP (Gene EPHA4): 0.19
Low_lfc (Gene EPHA4): -0.17
Low_logP (Gene EPHA4): 0.06
High_lfc (Gene ERCC8): -0.19
High_logP (Gene ERCC8): 0.27
Low_lfc (Gene ERCC8): -0.63
Low_logP (Gene ERCC8): 0.01
High_lfc (Gene ESCO1): 0.1
High_logP (Gene ESCO1): 0.14
Low_lfc (Gene ESCO1): -0.14
Low_logP (Gene ESCO1): 0.11
High_lfc (Gene FAM9A): -0.28
High_logP (Gene FAM9A): 0.03
Low_lfc (Gene FAM9A): -0.03
Low_logP (Gene FAM9A): 0.66
High_lfc (Gene FBXL2): -0.01
High_logP (Gene FBXL2): 0.32
Low_lfc (Gene FBXL2): -0.67
Low_logP (Gene FBXL2): 0.02
High_lfc (Gene FBXL3): 0.05
High_logP (Gene FBXL3): 0.1
Low_lfc (Gene FBXL3): 0.28
Low_logP (Gene FBXL3): 0.58
High_lfc (Gene FBXL4): -0.08
High_logP (Gene FBXL4): 0.06
Low_lfc (Gene FBXL4): 0.06
Low_logP (Gene FBXL4): 0.49
High_lfc (Gene FBXL5): 0.03
High_logP (Gene FBXL5): 0.04
Low_lfc (Gene FBXL5): 0.05
Low_logP (Gene FBXL5): 0.32
High_lfc (Gene FBXL6): 0.08
High_logP (Gene FBXL6): 0.54
Low_lfc (Gene FBXL6): 0.07
Low_logP (Gene FBXL6): 0.24
High_lfc (Gene FBXL7): -0.35
High_logP (Gene FBXL7): 0.03
Low_lfc (Gene FBXL7): -0.35
Low_logP (Gene FBXL7): 0.01
High_lfc (Gene FBXL8): -0.11
High_logP (Gene FBXL8): 0.39
Low_lfc (Gene FBXL8): 0.2
Low_logP (Gene FBXL8): 0.54
High_lfc (Gene FBXL12): 0.01
High_logP (Gene FBXL12): 0.22
Low_lfc (Gene FBXL12): 0.06
Low_logP (Gene FBXL12): 0.38
High_lfc (Gene FBXL13): -0.18
High_logP (Gene FBXL13): 0.02
Low_lfc (Gene FBXL13): -0.03
Low_logP (Gene FBXL13): 0.46
High_lfc (Gene FBXL14): -0.12
High_logP (Gene FBXL14): 0.22
Low_lfc (Gene FBXL14): 0.15
Low_logP (Gene FBXL14): 0.61
High_lfc (Gene FBXL15): 0.41
High_logP (Gene FBXL15): 0.56
Low_lfc (Gene FBXL15): 0.18
Low_logP (Gene FBXL15): 0.28
High_lfc (Gene FBXL16): 0.12
High_logP (Gene FBXL16): 0.12
Low_lfc (Gene FBXL16): -0.11
Low_logP (Gene FBXL16): 0.07
High_lfc (Gene FBXL17): 0.03
High_logP (Gene FBXL17): 0.74
Low_lfc (Gene FBXL17): -0.02
Low_logP (Gene FBXL17): 0.44
High_lfc (Gene FBXL18): 0.28
High_logP (Gene FBXL18): 1.09
